# Results: patent publication US20120152149A1, “USE OF 1,3-DIOLS AS BIOCIDES” (BASF SE, priority 2009, published 2012)
# Tests used:
# Format in all cases: cell-based
# A. niger ATCC 16404 = experiment: Preservation stress test, example formulation 1 (standard emulsion O/W); details: 1% active substance
# Procedure: (§1) Preservation stress tests (PSTs) were carried out in order to determine the preserving activity of the diols. In the preservation stress test, this is simulated through artificial loadings with microorganisms. These can either be inoculated as mixed population or individually in mixtures independent of one another. The inoculated product samples are incubated under defined conditions and, after defined times, samples are taken in order to determine the germ loading. In the case of adequate preservation, the number of microorganisms should, depending on the type, either decrease or remain constant in order to satisfy the requirements specified, e.g. in Ph. Eur. 6.0. To investigate the preserving effect of the diols, application-typical amounts of the diols were incorporated into example formulations. […] [table] These example formulations were used to prepare various mixtures which each comprised 1% active substance or comprised water instead of the active substance as placebo mixtures. These mixtures were in each case inoculated with the test germs such that a germ loading of 10^5-10^6 CFU/g was present in the test mixture. The bacteria were either used individually for the inoculation or as a mixed culture. To determine the starting germ count, immediately after inoculation, an aliquot was taken, diluted in dilution medium (phosphate buffer, 0.07 molar pH 7.4 (+/−0.2), with 1% Tween 80+0.3% soya lecithin), and the surviving germ count was determined in the dilution stages 10^−1 to 10^−3. The inoculated product samples then incubated for a total of 28 d at 20-25° C. After 2 d, 7 d, 14 d and after 28 d, aliquots were taken and diluted in dilution medium (phosphate buffer, 0.07 molar pH 7.4 (+/−0.2), with 1% Tween 80+0.3% soya lecithin). The surviving germ counts were determined in the dilution stages 10^−1 to 10^−4. The reference point taken for determining the reduction in germ count was the respective initial value of the sample. The results were given as logarithmic reductions.
# C. albicans ATCC 10231 = experiment: as above; details: 1% active substance
# Procedure: as §1
# [1] = tested on: E. coli ATCC 10536, S. aureus ATCC 6538, P. aeruginosa ATCC 15442; experiment: Preservation stress test, example formulation 1 (standard emulsion O/W), bacteria together; details: 1% active substance, P. aeruginosa (one time series)
# Procedure: as §1
# S. aureus ATCC 6538 = experiment: Suspension test EN 1040, bactericidal activity; details: 1000 ppm of active substance
# Procedure: (§2) The bactericidal activity of the substances of this invention was carried out in a suspension test corresponding to the European standard EN 1040 and compared with the activities of customary commercial products. For this, only relatively small modifications were made. The substances of the formula (1) were dissolved in water or ethanol to give a 1% strength stock solution. For determining the bactericidal activities, the test mixtures were selected such that 1000 ppm of active substance was present in an aqueous solution. The procedure was the same with the comparison samples. For the results shown in table 2, the test mixtures were inoculated with the following bacterial strains such that the stated germ densities were present in the test mixtures. S. aureus ATCC 6538 1−2×10^7 CFU/ml The test mixtures were incubated at room temperature (22° C.+/−2° C.). After defined contact times, aliquots of 1 ml were taken in order to determine the surviving germ count. For the deactivation of the microbicidal activity of the diols, the aliquots were diluted in 1:10 dilution steps in a solution of TS broth with 10% Tween, 3% lecithin, 0.1% histidines and 0.5% sodium thiosulfate and the 10^−2 and 10^−3 dilution stages were used for determining the surviving germ count. For this purpose, corresponding aliquots were plated out on Caso medium with inhibitor (Merck) and incubated at 37° C. for 24 h. The ascertained surviving germ counts were in each case compared with a mixture containing water (water control) by determining the logarithmic reduction in the surviving germ counts based on the water control.
# E. coli ATCC 10536 = experiment: Suspension test EN 1040, bactericidal activity; details: 1000 ppm of active substance
# Procedure: as §2, with “E. coli” for “S. aureus”, “10536” for “6538”
Compound,Microbicidal activity given as logarithmic reduction in germ count (A. niger ATCC 16404; 48 h),Microbicidal activity given as logarithmic reduction in germ count (A. niger ATCC 16404; 7 d),Microbicidal activity given as logarithmic reduction in germ count (A. niger ATCC 16404; 14 d),Microbicidal activity given as logarithmic reduction in germ count (A. niger ATCC 16404; 28 d),Microbicidal activity given as logarithmic reduction in germ count (C. albicans ATCC 10231; 48 h),Microbicidal activity given as logarithmic reduction in germ count (C. albicans ATCC 10231; 7 d),Microbicidal activity given as logarithmic reduction in germ count (C. albicans ATCC 10231; 14 d),Microbicidal activity given as logarithmic reduction in germ count (C. albicans ATCC 10231; 28 d),Microbicidal activity given as logarithmic reduction in germ count ([1]; 48 h),Microbicidal activity given as logarithmic reduction in germ count ([1]; 7 d),Microbicidal activity given as logarithmic reduction in germ count ([1]; 14 d),Microbicidal activity given as logarithmic reduction in germ count ([1]; 28 d),Microbicidal activity given as logarithmic reduction in germ count (S. aureus ATCC 6538; contact time 5 min),Microbicidal activity given as logarithmic reduction in germ count (S. aureus ATCC 6538; contact time 30 min),Microbicidal activity given as logarithmic reduction in germ count (S. aureus ATCC 6538; contact time 24 h),Microbicidal activity given as logarithmic reduction in germ count (E. coli ATCC 10536; contact time 5 min),Microbicidal activity given as logarithmic reduction in germ count (E. coli ATCC 10536; contact time 30 min),Microbicidal activity given as logarithmic reduction in germ count (E. coli ATCC 10536; contact time 24 h)
"CC(C)C(C)(CO)CO [IMPD, 2-isopropyl-2-methylpropane-1,3-diol]",1 log. Red.,1 log. Red.,2 log. Red.,3 log. Red.,1 log. Red.,≧3 log. Red.,5 log. Red.,5 log. Red.,≧3 log. Red.,5 log. Red.,5 log. Red.,5 log. Red.,–,–,–,–,–,–
"OCC1(CO)CC2CCC1C2 (stereo not drawn) [2,2-DMNB, 2,2-dimethylolnorbornane]",0 log. Red.,0 log. Red.,0 log. Red.,0 log. Red.,1 log. Red.,≧3 log. Red.,5 log. Red.,5 log. Red.,≧3 log. Red.,5 log. Red.,5 log. Red.,5 log. Red.,–,–,–,–,–,–
"OCC1(CO)CCCC1 [DMCP, 1,1-dimethylolcyclopentane]",2 log. Red.,1 log. Red.,2 log. Red.,2 log. Red.,≧3 log. Red.,5 log. Red.,5 log. Red.,5 log. Red.,3 log. Red.,5 log. Red.,5 log. Red.,5 log. Red.,–,–,–,–,–,–
"CCCC(O)CO (stereo not drawn) [1,2-Pentanediol, 1,2-pentanediol, reference compound]",0 log. Red.,0 log. Red.,0 log. Red.,–,0 log. Red.,0 log. Red.,0 log. Red.,–,–,–,–,–,<1 log. red.,<1 log. red.,<1 log. red.,<1 log. red.,<1 log. red.,<1 log. red.
"CCCCCCCCC(C)(CO)CO [OMPD, 2-octyl-2-methylpropane-1,3-diol]",0 log. Red.,0 log. Red.,1 log. Red.,1 log. Red.,≧3 log. Red.,5 log. Red.,5 log. Red.,5 log. Red.,≧3 log. Red.,5 log. Red.,5 log. Red.,5 log. Red.,<1 log. red.,4.8 log. red.,>5 log. red.,>5 log. red.,>5 log. red.,>5 log. red.
"CCCCCC(CO)(CO)CCC [PPPD, 2-pentyl-2-propylpropane-1,3-diol]",0 log. Red.,1 log. Red.,1 log. Red.,1 log. Red.,≧3 log. Red.,5 log. Red.,5 log. Red.,5 log. Red.,≧3 log. Red.,5 log. Red.,5 log. Red.,5 log. Red.,<1 log. red.,1.5 log. red.,>5 log. red.,>5 log. red.,>5 log. red.,>5 log. red.
